According to BindingDB's records for doi:10.1021/acs.biochem.5b00822 (The University of Kansas Medical Center, 2015):
Where “and” joins values, the source holds several entries; their conditions need not be identical. Equal entries are not always repeated.

Experiments:
Conditions in all cases: 25 °C
[1] = target: T1, Phosphoenolpyruvate carboxykinase, cytosolic [GTP] (Rattus norvegicus, UniProt P07379); experiment: PEPCK Assay (OAA to PEP-allosteric)
T1 sequence (P07379 whole entry): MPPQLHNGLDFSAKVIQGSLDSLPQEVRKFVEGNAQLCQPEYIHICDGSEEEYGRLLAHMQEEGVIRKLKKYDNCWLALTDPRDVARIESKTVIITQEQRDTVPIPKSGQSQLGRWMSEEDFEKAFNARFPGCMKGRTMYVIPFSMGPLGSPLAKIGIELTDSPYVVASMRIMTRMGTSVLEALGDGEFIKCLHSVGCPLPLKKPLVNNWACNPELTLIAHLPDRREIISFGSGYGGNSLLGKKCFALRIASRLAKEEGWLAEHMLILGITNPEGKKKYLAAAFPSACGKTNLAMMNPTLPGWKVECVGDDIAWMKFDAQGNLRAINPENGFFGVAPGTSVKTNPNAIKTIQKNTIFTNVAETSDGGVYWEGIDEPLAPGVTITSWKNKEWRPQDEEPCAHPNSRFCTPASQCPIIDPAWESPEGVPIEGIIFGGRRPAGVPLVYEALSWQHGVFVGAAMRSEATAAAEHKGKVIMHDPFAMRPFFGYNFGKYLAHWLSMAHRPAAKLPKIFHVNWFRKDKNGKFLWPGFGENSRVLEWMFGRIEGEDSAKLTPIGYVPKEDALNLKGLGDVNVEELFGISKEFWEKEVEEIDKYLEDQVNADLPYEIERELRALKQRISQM
Description: (§1) Allosteric binding site. The activity of PEPCK in the direction from OAA to PEP was assayed with 50 mM HEPES (pH 7.5), 10 mM DTT, 4 mM MgCl2, 0.5 mM GTP, 1 mM ADP, 187.5 μM NADH, 45 units of LDH, 50 μg of PK, 0.2 mM MnCl2, and (∼1−2 μg) of PEPCK. The assay mixture was incubated for 5 min at 25 °C and the reaction started with the addition of OAA to a final concentration of 350 μM. A second reaction without PEPCK was run simultaneously to account for the spontaneous decarboxylation of OAA. Inhibition assays with MPA were conducted under both variable OAA and variable GTP concentrations. When the GTP concentration was varied, MgCl2 concentrations were also varied to keep a constant 4:1 metal:nucleotide ratio.

[2] = target: T1, Phosphoenolpyruvate carboxykinase, cytosolic [GTP]; experiment: PEPCK Assay (OAA to PEP)
Description: as §1, with “OAA/PEP” for “Allosteric”

[3] = target: T1, Phosphoenolpyruvate carboxykinase, cytosolic [GTP]; experiment: PEPCK Assay (PEP to OAA-allosteric)
Description: (§2) Allosteric binding site. When the enzyme was assayed in the direction of PEP →OAA, the standard reaction mixture contained 50 mM HEPES (pH 7.5), 2mMMnCl2, 10mMDTT, 0.5mMGDP, 2mMPEP, 187.5 μM NADH, 50 mM KHCO3, and 11 units of MDH. The reaction proceeded at 25 °C and was started with the addition of PEPCK (∼1−2 μg). Mutants were assayed as previously described with the exception that ~30 μg of enzyme was used to initiate the assay.14 Inhibition assays with MPA were conducted with varying concentrations of PEP with a fixed GDP concentration of 500 or 25 μM. Inhibition assays against GDP were conducted at a fixed concentration of PEP of 2 or 5 mM.

[4] = target: T1, Phosphoenolpyruvate carboxykinase, cytosolic [GTP]; experiment: PEPCK Assay (PEP to OAA)
Description: as §2, with “OAA/PEP” for “Allosteric”

Ki [1]: 121 µM | Ki [2]: 45 µM | Ki [3]: 180 µM and 83 µM | Ki [4]: 83 µM and 37 µM
Compound: O=C(O)c1ncccc1S [3-Mercaptopicolinic acid (MPA)]
